Reference: ChEMBL document CHEMBL5465560, “Selectivity Literature for EUbOPEN Chemogenomic Library” (2024)

Assays:
[1] = molecular target: Serine/threonine-protein kinase RIO2 (Homo sapiens) (UniProt Q9BVS4); assay: Selectivity interaction (KinomeScan (DiscoverX)) EUB0000695a RIOK2; conditions: at 100 nM
[2] = molecular target: Cyclin-dependent kinase-like 1 (Homo sapiens) (UniProt Q00532); assay: Selectivity interaction (KinomeScan (DiscoverX)) EUB0001049a CDKL1; conditions: at 1 µM
[3] = molecular target: Casein kinase I isoform gamma-1 (Homo sapiens) (UniProt Q9HCP0); assay: Selectivity interaction (KinomeScan (DiscoverX)) EUB0000655a CSNK1G1; conditions: at 10 µM
Chain of Casein kinase I isoform gamma-1 (Homo sapiens) (Q9HCP0 whole entry, looked up, canonical isoform): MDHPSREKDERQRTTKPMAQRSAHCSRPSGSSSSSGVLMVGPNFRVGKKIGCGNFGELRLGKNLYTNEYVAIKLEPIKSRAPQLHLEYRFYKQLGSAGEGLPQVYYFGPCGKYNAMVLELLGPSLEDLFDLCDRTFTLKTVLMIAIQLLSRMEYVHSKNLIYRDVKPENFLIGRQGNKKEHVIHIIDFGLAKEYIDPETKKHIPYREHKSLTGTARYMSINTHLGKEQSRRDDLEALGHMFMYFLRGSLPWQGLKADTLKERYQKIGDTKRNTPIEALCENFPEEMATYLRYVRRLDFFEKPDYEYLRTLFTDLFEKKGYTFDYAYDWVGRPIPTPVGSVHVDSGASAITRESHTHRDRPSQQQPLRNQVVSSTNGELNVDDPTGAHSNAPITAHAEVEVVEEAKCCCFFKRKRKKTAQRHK

[4] = molecular target: T1, NUAK family SNF1-like kinase 2 (Homo sapiens) (UniProt Q9H093); assay: Selectivity interaction (KinomeScan (DiscoverX)) EUB0000092b NUAK2; conditions: at 10 µM
T1 sequence (whole entry): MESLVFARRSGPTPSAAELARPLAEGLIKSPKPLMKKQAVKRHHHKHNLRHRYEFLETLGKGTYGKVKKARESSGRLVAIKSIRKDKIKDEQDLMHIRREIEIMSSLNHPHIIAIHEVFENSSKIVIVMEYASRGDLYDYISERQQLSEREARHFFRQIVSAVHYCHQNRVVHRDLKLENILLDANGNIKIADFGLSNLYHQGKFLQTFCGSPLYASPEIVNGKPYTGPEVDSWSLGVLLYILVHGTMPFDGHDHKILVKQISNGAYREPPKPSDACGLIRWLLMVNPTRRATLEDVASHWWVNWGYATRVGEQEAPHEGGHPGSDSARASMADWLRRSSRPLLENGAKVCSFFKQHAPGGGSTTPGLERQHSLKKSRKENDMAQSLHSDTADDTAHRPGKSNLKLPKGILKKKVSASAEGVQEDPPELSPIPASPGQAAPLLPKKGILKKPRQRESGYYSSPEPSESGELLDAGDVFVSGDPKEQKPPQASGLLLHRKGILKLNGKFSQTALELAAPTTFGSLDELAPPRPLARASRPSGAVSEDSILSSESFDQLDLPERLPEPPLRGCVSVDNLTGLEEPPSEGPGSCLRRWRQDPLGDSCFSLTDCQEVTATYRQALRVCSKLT

[5] = molecular target: T2, Mitogen-activated protein kinase kinase kinase 15 (Homo sapiens) (UniProt Q6ZN16); assay: Selectivity interaction (KinomeScan (DiscoverX)) EUB0000092b MAP3K15; conditions: at 10 µM
T2 sequence (whole entry): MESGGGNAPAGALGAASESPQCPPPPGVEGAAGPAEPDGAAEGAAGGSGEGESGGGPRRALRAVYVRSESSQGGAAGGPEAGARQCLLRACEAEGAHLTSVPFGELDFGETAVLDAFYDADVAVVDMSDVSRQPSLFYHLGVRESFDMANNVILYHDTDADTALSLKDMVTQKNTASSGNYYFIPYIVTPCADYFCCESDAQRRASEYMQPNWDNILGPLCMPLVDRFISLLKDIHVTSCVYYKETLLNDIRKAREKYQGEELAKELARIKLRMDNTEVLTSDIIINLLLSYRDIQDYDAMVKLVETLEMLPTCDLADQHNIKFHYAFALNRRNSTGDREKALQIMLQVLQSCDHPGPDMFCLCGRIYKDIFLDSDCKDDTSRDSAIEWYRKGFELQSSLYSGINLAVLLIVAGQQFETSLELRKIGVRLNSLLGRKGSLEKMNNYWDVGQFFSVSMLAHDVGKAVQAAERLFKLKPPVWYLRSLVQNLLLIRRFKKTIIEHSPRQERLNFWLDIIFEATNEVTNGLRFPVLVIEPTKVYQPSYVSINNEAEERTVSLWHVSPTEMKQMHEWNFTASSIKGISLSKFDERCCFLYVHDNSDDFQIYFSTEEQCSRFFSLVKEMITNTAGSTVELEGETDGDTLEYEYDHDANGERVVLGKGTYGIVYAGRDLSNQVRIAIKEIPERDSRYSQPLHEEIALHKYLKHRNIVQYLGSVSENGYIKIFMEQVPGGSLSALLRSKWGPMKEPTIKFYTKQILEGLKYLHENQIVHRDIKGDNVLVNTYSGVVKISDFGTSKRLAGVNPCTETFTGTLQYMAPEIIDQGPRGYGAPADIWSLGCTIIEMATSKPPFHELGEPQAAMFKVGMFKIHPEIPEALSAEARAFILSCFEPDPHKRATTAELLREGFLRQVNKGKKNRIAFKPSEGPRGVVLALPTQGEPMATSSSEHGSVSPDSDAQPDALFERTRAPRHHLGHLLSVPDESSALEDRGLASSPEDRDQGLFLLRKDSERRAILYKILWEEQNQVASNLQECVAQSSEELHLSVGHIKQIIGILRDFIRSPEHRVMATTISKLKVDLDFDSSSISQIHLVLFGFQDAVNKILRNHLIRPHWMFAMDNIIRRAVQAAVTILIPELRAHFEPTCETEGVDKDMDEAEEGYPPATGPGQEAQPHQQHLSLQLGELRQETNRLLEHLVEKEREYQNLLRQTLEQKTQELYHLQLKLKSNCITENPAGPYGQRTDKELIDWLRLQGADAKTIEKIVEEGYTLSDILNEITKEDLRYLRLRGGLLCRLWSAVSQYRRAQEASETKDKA

[6] = molecular target: T3, Cyclin-dependent kinase 11A (Homo sapiens) (UniProt Q9UQ88); conditions: at 10 µM
T3 sequence (whole entry): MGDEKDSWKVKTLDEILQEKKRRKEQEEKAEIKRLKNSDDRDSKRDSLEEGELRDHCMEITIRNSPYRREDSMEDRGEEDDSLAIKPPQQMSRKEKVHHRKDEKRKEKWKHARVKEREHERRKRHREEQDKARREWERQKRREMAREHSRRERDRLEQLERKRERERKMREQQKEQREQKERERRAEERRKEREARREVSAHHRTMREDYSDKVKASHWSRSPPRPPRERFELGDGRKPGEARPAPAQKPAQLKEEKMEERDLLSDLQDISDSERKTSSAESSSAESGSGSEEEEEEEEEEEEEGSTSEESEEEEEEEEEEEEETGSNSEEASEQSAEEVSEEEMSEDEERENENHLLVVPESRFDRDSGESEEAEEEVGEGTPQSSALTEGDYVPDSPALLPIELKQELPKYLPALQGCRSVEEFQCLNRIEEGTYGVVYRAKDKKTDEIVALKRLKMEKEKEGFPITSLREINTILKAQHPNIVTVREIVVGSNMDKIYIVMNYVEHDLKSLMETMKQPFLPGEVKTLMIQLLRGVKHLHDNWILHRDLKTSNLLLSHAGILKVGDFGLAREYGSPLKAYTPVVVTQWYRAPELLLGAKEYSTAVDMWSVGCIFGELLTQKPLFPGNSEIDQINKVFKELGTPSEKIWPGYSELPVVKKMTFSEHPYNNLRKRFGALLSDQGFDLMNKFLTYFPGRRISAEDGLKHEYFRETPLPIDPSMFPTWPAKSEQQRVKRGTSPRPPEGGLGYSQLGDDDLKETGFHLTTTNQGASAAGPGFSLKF

[7] = molecular target: Serine/threonine-protein kinase MARK2 (Homo sapiens) (UniProt Q7KZI7); conditions: at 10 µM
Chain of Serine/threonine-protein kinase MARK2 (Homo sapiens) (Q7KZI7 whole entry): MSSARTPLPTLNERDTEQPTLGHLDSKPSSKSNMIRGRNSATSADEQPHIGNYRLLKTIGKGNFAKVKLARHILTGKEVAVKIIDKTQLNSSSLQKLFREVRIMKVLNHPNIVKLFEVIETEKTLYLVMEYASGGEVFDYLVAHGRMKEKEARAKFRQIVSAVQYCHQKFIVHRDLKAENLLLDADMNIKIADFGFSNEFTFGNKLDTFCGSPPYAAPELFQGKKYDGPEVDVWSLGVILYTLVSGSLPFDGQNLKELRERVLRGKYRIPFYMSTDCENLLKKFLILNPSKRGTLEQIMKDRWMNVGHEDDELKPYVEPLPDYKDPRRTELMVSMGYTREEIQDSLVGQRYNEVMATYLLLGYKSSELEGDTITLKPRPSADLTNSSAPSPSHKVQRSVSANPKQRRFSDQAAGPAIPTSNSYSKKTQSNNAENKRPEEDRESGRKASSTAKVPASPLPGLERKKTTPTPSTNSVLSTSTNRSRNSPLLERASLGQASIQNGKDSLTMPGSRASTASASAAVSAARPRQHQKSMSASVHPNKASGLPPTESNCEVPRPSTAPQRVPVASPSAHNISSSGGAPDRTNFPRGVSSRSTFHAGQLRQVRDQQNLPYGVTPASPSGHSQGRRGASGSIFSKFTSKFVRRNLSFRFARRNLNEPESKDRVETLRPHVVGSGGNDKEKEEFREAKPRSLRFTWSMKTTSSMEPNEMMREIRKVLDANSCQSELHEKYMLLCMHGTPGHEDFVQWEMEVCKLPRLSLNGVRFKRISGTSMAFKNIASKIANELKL

Chain of Serine/threonine-protein kinase RIO2 (Homo sapiens) (Q9BVS4 whole entry, looked up): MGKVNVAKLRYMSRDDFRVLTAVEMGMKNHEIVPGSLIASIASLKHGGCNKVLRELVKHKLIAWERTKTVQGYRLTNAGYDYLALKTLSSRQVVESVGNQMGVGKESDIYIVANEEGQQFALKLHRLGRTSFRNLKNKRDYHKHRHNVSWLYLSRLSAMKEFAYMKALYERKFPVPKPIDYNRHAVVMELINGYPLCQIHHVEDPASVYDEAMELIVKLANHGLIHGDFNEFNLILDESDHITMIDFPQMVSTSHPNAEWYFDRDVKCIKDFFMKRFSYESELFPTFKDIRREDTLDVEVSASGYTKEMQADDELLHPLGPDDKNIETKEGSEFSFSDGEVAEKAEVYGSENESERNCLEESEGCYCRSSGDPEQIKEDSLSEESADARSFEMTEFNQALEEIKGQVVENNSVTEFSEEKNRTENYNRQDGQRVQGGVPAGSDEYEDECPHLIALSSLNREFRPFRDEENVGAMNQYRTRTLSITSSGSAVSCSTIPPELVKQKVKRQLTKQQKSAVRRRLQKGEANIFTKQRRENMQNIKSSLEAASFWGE
Chain of Cyclin-dependent kinase-like 1 (Homo sapiens) (Q00532 whole entry, canonical isoform): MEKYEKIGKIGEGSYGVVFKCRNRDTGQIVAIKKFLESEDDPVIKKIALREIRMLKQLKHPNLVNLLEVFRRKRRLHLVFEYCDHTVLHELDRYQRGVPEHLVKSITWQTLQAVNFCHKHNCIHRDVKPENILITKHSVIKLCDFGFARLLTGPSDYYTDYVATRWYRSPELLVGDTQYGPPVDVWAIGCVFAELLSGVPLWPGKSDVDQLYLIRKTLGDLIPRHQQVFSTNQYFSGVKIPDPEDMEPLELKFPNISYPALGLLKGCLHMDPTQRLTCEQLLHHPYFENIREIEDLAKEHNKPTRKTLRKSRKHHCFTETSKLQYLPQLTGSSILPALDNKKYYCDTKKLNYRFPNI

SMILES: Cc1cc(F)c(C(=O)Nc2cccc(-c3nncn3C(C)C)n2)cc1-n1cnc(C2CC2)c1
- % of control [1]: 100%

SMILES: COc1cc(Nc2nc(C)cc(-c3cnn4nc(OC)ccc34)n2)cc(C(F)(F)F)c1
- % of control [2]: 73%

SMILES: CN(C)CCOc1ccc(-c2nc(-c3ccncc3)c(-c3ccc4c(c3)CC/C4=N\O)[nH]2)cc1
- % of control [3]: 81%

SMILES: CCC(=O)N1CCN(c2ccc(-n3c(=O)ccc4cnc5ccc(-c6cnc7ccccc7c6)cc5c43)cc2C(F)(F)F)CC1
- % of control [4]: 100%
- % of control [5]: 100%

SMILES: Cc1cc([C@@H](C)Nc2ccccc2C(=O)O)c2nc(N3CCOCC3)cc(=O)n2c1 [AZD-6482]
- % of control [6]: 100%
- % of control [7]: 90%
